{"source": "ChEMBL document CHEMBL1955732", "about": "“Synthesis and biological evaluation of 21-arylidenepregnenolone derivatives as neuroprotective agents” (Bioorg Med Chem Lett, 2012)", "assay_type_in_all_cases": "functional", "key": {"PC-12 [1]": {"tested_on": "PC-12", "assay": "Neuroprotective activity against Abeta25-35-induced […] cells assessed as cell viability at 10 uM preincubated for 2 hrs prior Abeta25-35 challenge measured after 24 hrs by MTT assay", "conditions": "Rattus norvegicus, read-out: Activity"}, "PC-12 [2]": {"tested_on": "PC-12", "assay": "Neuroprotective activity against Abeta25-35-induced […] cells assessed as cell viability at 1 uM preincubated for 2 hrs prior Abeta25-35 challenge measured after 24 hrs by MTT assay", "conditions": "Rattus norvegicus"}, "SH-SY5Y": {"tested_on": "SH-SY5Y", "assay": "Neuroprotective activity against oxygen-glucose deprivation-induced human SH-SY5Y cells assessed as cell viability at 10 uM preincubated for 2 hrs prior oxygen-glucose deprivation challenge for 1 hr measured after 24 hrs incubation under normal condition by MTT assay", "conditions": "read-out: Activity"}}, "note": "Active and inactive are the calls of the source. No cut-off for these calls is given here.", "data": [{"compound": "COc1ccccc1/C=C/C(=O)[C@H]1CC[C@H]2[C@@H]3C[C@@H]4O[C@@]45C[C@@H](O)CC[C@]5(C)[C@H]3CC[C@]12C", "values": [{"measurement": "viability at 10 µM", "setting": "PC-12 [1]", "result": 73.7, "unit": "%"}, {"measurement": "Activity", "setting": "PC-12 [2]", "result": "inactive"}, {"measurement": "viability at 10 µM", "setting": "SH-SY5Y", "result": 98.7, "unit": "%"}]}]}
